According to article PMC10997755, “Discovery of a small-molecule inhibitor that traps Polθ on DNA and synergizes with PARP inhibitors” (Nature Communications, 2024):
Values joined by “and” are separate entries in the source; they are usually repeats but may differ in a detail not shown here. Identical values can stand only once. “Also recorded” adds a separate entry of the source.

What was measured:
Type in all cases: biochemical
Polθ-pol:DNA/DNA complex [1] = molecular target: T1, Polθ-pol:DNA/DNA complex (Homo sapiens, UniProt O75417); assay: KpnI endonuclease protection assay; conditions: for i (%), normalized to 100%, ave(%) / i (%), replicates: 14 nt i; for i+1 (%) normalized to 100%, ave(%) / i+1 (%), replicates: 15 nt i+1
T1 construct: purified recombinant human Polθ-pol (comprising amino acid residues 1792–2590); made in house
T1 sequence (O75417 1792-2590): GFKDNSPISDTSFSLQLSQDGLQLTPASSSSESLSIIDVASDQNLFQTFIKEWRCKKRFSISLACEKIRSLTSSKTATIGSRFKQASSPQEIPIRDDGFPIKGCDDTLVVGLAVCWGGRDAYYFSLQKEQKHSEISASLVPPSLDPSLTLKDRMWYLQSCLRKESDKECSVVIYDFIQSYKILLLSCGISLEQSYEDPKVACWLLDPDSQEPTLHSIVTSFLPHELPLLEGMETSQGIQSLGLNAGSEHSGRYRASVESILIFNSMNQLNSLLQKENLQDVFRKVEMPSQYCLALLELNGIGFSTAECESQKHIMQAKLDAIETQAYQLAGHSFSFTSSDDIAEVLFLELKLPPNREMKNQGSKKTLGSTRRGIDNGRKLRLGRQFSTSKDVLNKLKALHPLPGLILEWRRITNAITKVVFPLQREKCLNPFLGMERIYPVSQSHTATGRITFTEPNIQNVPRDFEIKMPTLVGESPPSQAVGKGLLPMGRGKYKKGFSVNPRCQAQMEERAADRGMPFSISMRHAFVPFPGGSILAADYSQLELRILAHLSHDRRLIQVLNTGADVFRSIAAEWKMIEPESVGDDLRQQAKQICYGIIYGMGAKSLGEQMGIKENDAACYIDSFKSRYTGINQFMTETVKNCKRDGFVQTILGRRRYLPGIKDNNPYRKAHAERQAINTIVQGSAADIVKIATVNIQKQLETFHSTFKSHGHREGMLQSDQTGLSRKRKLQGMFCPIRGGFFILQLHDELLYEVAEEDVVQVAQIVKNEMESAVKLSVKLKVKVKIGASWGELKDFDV
Method: (§1) EcoRI and KpnI endonucleases assay: 25 nM 5’-^32P radiolabeled primer-template DNA Sc15-EcoRI (5’-^32P LM3-EcoRI/LM4-EcoRI) or Sc19-KpnI (5’-^32P LM11-Kpn/LM12-Kpn) in reaction buffer (25 mM Tris-HCl pH 7.5, 10 mM MgCl2, 10% glycerol, 0.1 mg/mL BSA, 0,01% igepal, 1 mM DTT) were incubated in the presence or in the absence of 50 nM Polθ-pol, 100 μM ddCTP, and 10 μM inhibitors, as indicated, for 5 min at room temperature. Next, 0.08 U/μL EcoRI or KpnI together with 500 nM “trapping” DNA Sc14 (RP559/RP702) were added and incubated for further 0–40 min at 30 °C as indicated. 10 nM PolθΔcen and FL-Polθ and 25 nM Sc15-EcoRI and Sc19-Kpn were probed with 0.04 U/μL EcoRI or KpnI (both from New England Biolabs) using the same conditions. Reactions were stopped by addition of formamide loading buffer with 50 mM EDTA, resolved in denaturing 20% urea PAAG and analyzed using Typhoon PhosphorImager (GE Amersham). Quantification was done in ImageQuant TL software. All quantified experiments were performed in triplicates and plotted as mean with ± s.d using GraphPad Prism 9 software.

KpnI = molecular target: T2, KpnI (Klebsiella pneumoniae, UniProt P25237); assay: KpnI cleavage control in the absence of Polθ-pol; conditions: for cleavage %: KpnI; for % cleavage: compound 10 µM
T2 construct: purchased New England Biolabs
T2 sequence (P25237 1-218): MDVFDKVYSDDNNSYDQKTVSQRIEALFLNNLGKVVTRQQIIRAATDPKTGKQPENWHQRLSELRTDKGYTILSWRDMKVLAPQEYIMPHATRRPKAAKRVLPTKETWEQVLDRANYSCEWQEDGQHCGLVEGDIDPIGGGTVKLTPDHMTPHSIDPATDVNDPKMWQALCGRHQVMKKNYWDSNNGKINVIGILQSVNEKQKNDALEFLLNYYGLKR
Method: as §1

EcoRI = molecular target: T3, EcoRI (Escherichia coli, UniProt P00642); assay: EcoRI cleavage control in the absence of Polθ-pol; conditions: for cleavage %: EcoRI; for % cleavage: compound 10 µM
T3 construct: purchased New England Biolabs
T3 sequence (P00642 2-277 limits assumed): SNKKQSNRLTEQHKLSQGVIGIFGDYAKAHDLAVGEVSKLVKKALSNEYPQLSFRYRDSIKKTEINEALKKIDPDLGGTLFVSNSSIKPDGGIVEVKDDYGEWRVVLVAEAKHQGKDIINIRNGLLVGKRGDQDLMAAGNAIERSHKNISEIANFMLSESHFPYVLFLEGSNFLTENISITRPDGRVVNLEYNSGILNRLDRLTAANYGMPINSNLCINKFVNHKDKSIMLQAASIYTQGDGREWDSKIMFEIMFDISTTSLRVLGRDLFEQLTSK
Method: as §1

Polθ-pol:DNA/DNA complex [2] = molecular target: T1, Polθ-pol:DNA/DNA complex; assay: EcoRI endonuclease protection assay; conditions: for EcoRI cleavage %, ave / EcoRI cleavage %, replicates #1-#3: Eco+pol+ddC+RTx compound; for cleavage normalized to 100%, i: 14 nt i; for cleavage normalized to 100%, i+1: 15 nt i+1; for i (%) (14 nt), replicates #1-#3 / i (%), normalized to 100%, ave(%) / i+1 (%) (15 nt), replicates #1-#3 / i+1 (%) normalized to 100%, ave(%): pol+ddC+compound;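 for i+1 (%) (15 nt), replicates #1-#3: i+1 is one-nucleotide extended DNA within post-catalytic complexes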
Method: as §1

CN1CCN(c2cc(C(F)(F)F)cc(C(F)(F)F)c2OC(=O)N(C)c2ccc(F)cc2)C1=O [RTx-152]
KpnI cleavage %, ave (Polθ-pol:DNA/DNA complex [1]; Kpn+pol+ddC+RTx152, 2.5min): 0.358%
KpnI cleavage %, replicates (Polθ-pol:DNA/DNA complex [1]; Kpn+pol+ddC+RTx152, 2.5min): 0.0% and 0.447% and 0.6%
KpnI cleavage %, ave (Polθ-pol:DNA/DNA complex [1]; Kpn+pol+ddC+RTx152, 5min): 0.665%
KpnI cleavage %, replicates (Polθ-pol:DNA/DNA complex [1]; Kpn+pol+ddC+RTx152, 5min): 0.321% and 0.8% and 0.9%
KpnI cleavage %, ave (Polθ-pol:DNA/DNA complex [1]; Kpn+pol+ddC+RTx152, 10min): 2.1%
KpnI cleavage %, replicates (Polθ-pol:DNA/DNA complex [1]; Kpn+pol+ddC+RTx152, 10min): 1.8% and 2.3% and 2.0%
trapping of post-catalytic complexes, different sequence context (Polθ-pol:DNA/DNA complex [1]; KpnI): identical trapping
i (%), normalized to 100%, ave(%) (Polθ-pol:DNA/DNA complex [1]; KpnI, pol+ddC+152, 2.5 min): 100.0%
i (%), replicates (Polθ-pol:DNA/DNA complex [1]; KpnI, pol+ddC+152, 2.5 min): 35.4% and 37.2% and 33.9%
i+1 (%) normalized to 100%, ave(%) (Polθ-pol:DNA/DNA complex [1]; KpnI, pol+ddC+152, 2.5 min): 100.0%
i+1 (%), replicates (Polθ-pol:DNA/DNA complex [1]; KpnI, pol+ddC+152, 2.5 min): 53.1% and 50.1% and 54.1%
i (%), normalized to 100%, ave(%) (Polθ-pol:DNA/DNA complex [1]; KpnI, pol+ddC+152, 5 min): 85.8%
i (%), replicates (Polθ-pol:DNA/DNA complex [1]; KpnI, pol+ddC+152, 5 min): 30.7% and 32.1% and 28.6%
i+1 (%) normalized to 100%, ave(%) (Polθ-pol:DNA/DNA complex [1]; KpnI, pol+ddC+152, 5 min): 107.9%
i+1 (%), replicates (Polθ-pol:DNA/DNA complex [1]; KpnI, pol+ddC+152, 5 min): 57.1% and 52.5% and 60.1%
i (%), normalized to 100%, ave(%) (Polθ-pol:DNA/DNA complex [1]; KpnI, pol+ddC+152, 10 min): 63.7%
i (%), replicates (Polθ-pol:DNA/DNA complex [1]; KpnI, pol+ddC+152, 10 min): 21.4% and 24.5% and 21.9%
i+1 (%) normalized to 100%, ave(%) (Polθ-pol:DNA/DNA complex [1]; KpnI, pol+ddC+152, 10 min): 120.8%
i+1 (%), replicates (Polθ-pol:DNA/DNA complex [1]; KpnI, pol+ddC+152, 10 min): 62.6% and 62.1% and 65.2%
cleavage % (KpnI; 3 min): 21.3%
cleavage % (KpnI; 6 min): 35.8%
inhibition of KpnI activity (KpnI; absence of Polθ-pol): resistant to inhibition
% cleavage (KpnI; cleavage 3 min): 21%
% cleavage (KpnI; cleavage 6 min): 36%
cleavage % (EcoRI; 3 min): 27.4%
cleavage % (EcoRI; 6 min): 49.4%
inhibition of EcoRI activity (EcoRI; absence of Polθ-pol): resistant to inhibition; also recorded: do not inhibit
% cleavage (EcoRI; cleavage 3 min): 27%
% cleavage (EcoRI; cleavage 6 min): 49%
suppression of EcoRI cleavage (Polθ-pol:DNA/DNA complex [2]; 10 μM inhibitor, ddCTP): strong suppression of endonuclease cleavage
time Polθ-pol is trapped on DNA/DNA (EcoRI cleavage suppressed) (Polθ-pol:DNA/DNA complex [2]; 10 μM inhibitor, ddCTP): > 40 min
EcoRI cleavage %, ave (Polθ-pol:DNA/DNA complex [2]; 2.5min): 2.1%
EcoRI cleavage %, replicates #1-#3 (Polθ-pol:DNA/DNA complex [2]; 2.5min): 3.0% and 2.0% and 1.2%
EcoRI cleavage %, ave (Polθ-pol:DNA/DNA complex [2]; 5min): 2.5%
EcoRI cleavage %, replicates #1-#3 (Polθ-pol:DNA/DNA complex [2]; 5min): 3.0% (2×) and 1.4%
EcoRI cleavage %, ave (Polθ-pol:DNA/DNA complex [2]; 10min): 4.6%
EcoRI cleavage %, replicates #1-#3 (Polθ-pol:DNA/DNA complex [2]; 10min): 5.0% (2×) and 3.7%
EcoRI cleavage % (Polθ-pol:DNA/DNA complex [2]; pol+ddC+152, 0 min): 0.0%
EcoRI cleavage % (Polθ-pol:DNA/DNA complex [2]; pol+ddC+152, 5 min): 3.0%
cleavage normalized to 100%, i (Polθ-pol:DNA/DNA complex [2]; pol+ddC+152, 5 min): 100.0%
cleavage normalized to 100%, i+1 (Polθ-pol:DNA/DNA complex [2]; pol+ddC+152, 5 min): 100.0%
EcoRI cleavage % (Polθ-pol:DNA/DNA complex [2]; pol+ddC+152, 10 min): 3.7%
cleavage normalized to 100%, i (Polθ-pol:DNA/DNA complex [2]; pol+ddC+152, 10 min): 75.0%
cleavage normalized to 100%, i+1 (Polθ-pol:DNA/DNA complex [2]; pol+ddC+152, 10 min): 110.0%
EcoRI cleavage % (Polθ-pol:DNA/DNA complex [2]; pol+ddC+152, 20 min): 5.7%
cleavage normalized to 100%, i (Polθ-pol:DNA/DNA complex [2]; pol+ddC+152, 20 min): 48.0%
cleavage normalized to 100%, i+1 (Polθ-pol:DNA/DNA complex [2]; pol+ddC+152, 20 min): 119.0%
EcoRI cleavage % (Polθ-pol:DNA/DNA complex [2]; pol+ddC+152, 40 min): 9.5%
cleavage normalized to 100%, i (Polθ-pol:DNA/DNA complex [2]; pol+ddC+152, 40 min): 25.0%
cleavage normalized to 100%, i+1 (Polθ-pol:DNA/DNA complex [2]; pol+ddC+152, 40 min): 124.0%
i (%) (14 nt), replicates #1-#3 (Polθ-pol:DNA/DNA complex [2]; 2.5min): 25.8% and 27.6% and 28.2%
i (%), normalized to 100%, ave(%) (Polθ-pol:DNA/DNA complex [2]; 2.5min): 100.0%
i+1 (%) (15 nt), replicates #1-#3 (Polθ-pol:DNA/DNA complex [2]; 2.5min): 59.7% and 57.2% and 58.7%
i+1 (%) normalized to 100%, ave(%) (Polθ-pol:DNA/DNA complex [2]; 2.5min): 100.0%
i (%) (14 nt), replicates #1-#3 (Polθ-pol:DNA/DNA complex [2]; 5min): 22.2% and 22.6% and 25.1%
i (%), normalized to 100%, ave(%) (Polθ-pol:DNA/DNA complex [2]; 5min): 85.6%
i+1 (%) (15 nt), replicates #1-#3 (Polθ-pol:DNA/DNA complex [2]; 5min): 63.6% and 59.1% and 62.1%
i+1 (%) normalized to 100%, ave(%) (Polθ-pol:DNA/DNA complex [2]; 5min): 105.2%
i (%) (14 nt), replicates #1-#3 (Polθ-pol:DNA/DNA complex [2]; 10min): 15.4% and 16.3% and 17.9%
i (%), normalized to 100%, ave(%) (Polθ-pol:DNA/DNA complex [2]; 10min): 60.8%
i+1 (%) (15 nt), replicates #1-#3 (Polθ-pol:DNA/DNA complex [2]; 10min): 68.8% and 63.1% and 66.7%
i+1 (%) normalized to 100%, ave(%) (Polθ-pol:DNA/DNA complex [2]; 10min): 113.1%
